From patent US20240398737A1, “FUNCTIONALIZED LONG-CHAIN HYDROCARBON MONO- AND DI-CARBOXYLIC ACIDS AND DERIVATIVES THEREOF, AND THEIR USE FOR THE PREVENTION OR TREATMENT OF DISEASE” (Espervita Therapeutics, Inc., priority 2021, published 2024)
Where two headings read alike, the source gives them in different places.

Tests used:
[1] = Synthesis of CoA derivatives in rat liver microsomes (LCMS detection); type: in vitro ADME; conditions: 1 mM substrate, 30 min sample
Method: Reaction products were eluted using the gradient shown below: […]
Formation and detection of the Co-A derivatives of Compounds 1-32, 1-61, I-1 or III-1 in rat liver microsomes: 1 mM of each compound (Compounds I-32, I-61, I-1 or III-1) or palmitic acid (control) were used as substrate in the rat microsomal preparation for 0 and 30 min and extracted as described above. […] Further confirmation was obtained by exposing the compound to a collision energy causing the characteristic neutral loss of 3′-phosphonucleoside diphosphate (507 Da) producing the fragment ion 499.3 m/z. There was no evidence of the CoA derivative in the time 0 min sample.

CAMK2g = CAMK2g (Homo sapiens (Human), UniProt Q13555); experiment: Wild type kinase screen: CAMK2g; type: biochemical; conditions: compound at 10 μM, 10 μM ATP, Data 1 and Data 2 duplicates
ERK7/MAPK15 = ERK7/MAPK15 (Homo sapiens (Human), UniProt Q8TD08); experiment: Wild type kinase screen: ERK7/MAPK15; type: biochemical; conditions: compound at 10 μM, 10 μM ATP, Data 1 and Data 2 duplicates
RIPK4 = RIPK4 (Homo sapiens (Human), UniProt P57078); experiment: Wild type kinase screen: RIPK4; type: biochemical; conditions: compound at 10 μM, 10 μM ATP, Data 1 and Data 2 duplicates
[2] = Toxicokinetics in female rats (4-day oral gavage study, Day 1); type: in vivo; conditions: female rat plasma; for Dose proportionality of the increases in mean Cmax and AUC0-24: 100 to 300 mg/kg/day; for Cmax / Tmax / AUC(0-t): Wistar Han (RccHan:WIST); for Cmax / Tmax / AUC(0-t) / AUC0-24 (h*ng/mL): Day 1; for AUC(0-t): read-out: AUC0-24
Method: Dosing Solutions. The dosing solutions of Compound I-1 or Compound I-32 were prepared as follows: a 60-mg/mL stock solution was prepared for Compound I-1 or Compound I-32 by dissolving Compound I-1 or Compound I-32 in DI water. Two molar equivalents of NaOH was added for every 1 mole of Compound I-1 or Compound I-32 (1.1 μL of 5N NaOH was added for every mg of Compound I-32 or Compound I-1). The pH of the stock solution for Compound I-1 or Compound I-32 was adjusted to achieve a final pH of 8.2 to 8.6. The resultant stock formulations were further diluted with vehicle to achieve the 30 mg/mL concentration. The 30-mg/mL formulations were diluted with control article to achieve the 10-mg/mL concentration. All dilution calculations were based on the nominal concentration of the stock solution. Formulations of Compound I-1 or Compound I-32 were prepared on the day of dosing were stored at room temperature (15 to 30° C.) and used within 8 hours of preparation completion. The control was 1.5% (w/v) carboxymethyl cellulose+0.2% (v/v) Tween 20 in DI water for as Group 1 formulations. The vehicle used for Compound I-1 and Compound I-32 formulations was 3% (w/v) carboxymethyl cellulose+0.4% (v/v) Tween 20 in DI water.
Bioanalytical and Toxicokinetic Analyses. Blood samples (approximately 0.3 mL) were collected from nonfasted toxicokinetic animals via a jugular vein on Day 1 of the dosing phase, as indicated in the following table. Samples were collected predose and approximately 1, 2, 4, and 24 hours postdose.
Blood was collected into tubes containing potassium (K2) EDTA as the anticoagulant. Samples were maintained on chilled cryoracks and were centrifuged within 1 hour of collection. Plasma was harvested into two approximately equal aliquots and stored on dry ice until placed in a freezer, set to maintain −60 to −80° C., until analyzed. Plasma samples were analyzed for Compound I-1 and Compound I-32 content using a generic Tier 1 qualified liquid chromatography-tandem mass spectrometry (LC-MS/MS) method.
In-Life Phase. Animals were dosed once daily for up to 4 days via oral gavage at a volume of 10 mL/kg. Animals in Group 2 and 3 were administered Compound I-1. Animals in Group 4 and 5 were administered Compound I-32. The control article for Group 1 was 1.5% (w/v) carboxymethyl cellulose+0.2% (v/v) Tween 20 in deionized (DI) water. The vehicle used to prepare Compound I-1 and Compound I-32 formulations was 3% (w/v) carboxymethyl cellulose+0.4% (v/v) Tween 20 in DI water.

C57BL6/J mice = experiment: Indirect calorimetry (CLAMS) in fructose-fed C57BL6/J mice; type: in vivo, mouse; conditions: 100 mg/kg oral gavage
Method: Materials and Methods. All experiments were carried out using the methods approved by the Animal Research Ethics Board at McMaster University, Canada (Steinberg Laboratory Animal Utilization Protocol #16-12-42). 8-Week-old male C57BL6/J mice were ordered from Jackson Laboratory, Bar Harbor, Maine and housed at the McMaster University Central Animal Facility. Animals were housed in the ventilated cages racks system and provided with ad libitum access to normal chow diet (Teklad 8640 22/5 rodent diet, procured from Envigo, Mississauga ON) and water supplemented with fructose (30% weight/volume, made fresh weekly) for at least 2-weeks before testing commenced. A 12-hour light/dark cycle and a temperature of 23±2° C. were maintained throughout the animal housing. Data were analyzed using one-way analyses of variance followed by a Tukey's multiple comparisons post hoc test where appropriate. All statistical analysis was carried out using GraphPad Prism 8 software. A p-value of less than or equal 0.05 was considered significant.
Experimental and Results. Respiratory Exchange Ratio (RER) and related metabolic parameters were measured using the Comprehensive Lab Animal Monitoring System (CLAMS, Columbus Instruments, Columbus, Ohio). Animals were placed in CLAMS and allowed ad libitum access to normal chow diet and water supplemented with fructose (30% weight/volume) for at least 24 hours before the experiment began. At 5:30 p.m. chow diet was removed and water containing 30% fructose was replaced with normal tap water. Animals were fasted overnight until food and 30% fructose water were made accessible the next day at 7:30 a.m. (14 hours total). Animals were allowed to feed ad libitum for ˜2 hours. RER was monitored and those animals with RER values >1 were administered either vehicle (1.5% Carboxymethyl cellulose and 0.2% Tween 20) alone or vehicle containing Compound I-1 or Compound I-32 at a dose of 100 mg/kg via oral gavage. Animals remained in the metabolic cages and RER, activity level, locomotor activity, and food intake were monitored for 24 hours. Metabolic parameters were calculated using Oxymax software included with Comprehensive Lab Animal Monitoring System (CLAMS). RER was calculated as the […] given by the following equation: […]
Locomotor activity was calculated as the total number of beam breaks in each cage over a 24-hour period. The heat (calorific value, CV) was calculated by the following equation: […]

Sequence of RIPK4 (P57078 whole entry, species assumed): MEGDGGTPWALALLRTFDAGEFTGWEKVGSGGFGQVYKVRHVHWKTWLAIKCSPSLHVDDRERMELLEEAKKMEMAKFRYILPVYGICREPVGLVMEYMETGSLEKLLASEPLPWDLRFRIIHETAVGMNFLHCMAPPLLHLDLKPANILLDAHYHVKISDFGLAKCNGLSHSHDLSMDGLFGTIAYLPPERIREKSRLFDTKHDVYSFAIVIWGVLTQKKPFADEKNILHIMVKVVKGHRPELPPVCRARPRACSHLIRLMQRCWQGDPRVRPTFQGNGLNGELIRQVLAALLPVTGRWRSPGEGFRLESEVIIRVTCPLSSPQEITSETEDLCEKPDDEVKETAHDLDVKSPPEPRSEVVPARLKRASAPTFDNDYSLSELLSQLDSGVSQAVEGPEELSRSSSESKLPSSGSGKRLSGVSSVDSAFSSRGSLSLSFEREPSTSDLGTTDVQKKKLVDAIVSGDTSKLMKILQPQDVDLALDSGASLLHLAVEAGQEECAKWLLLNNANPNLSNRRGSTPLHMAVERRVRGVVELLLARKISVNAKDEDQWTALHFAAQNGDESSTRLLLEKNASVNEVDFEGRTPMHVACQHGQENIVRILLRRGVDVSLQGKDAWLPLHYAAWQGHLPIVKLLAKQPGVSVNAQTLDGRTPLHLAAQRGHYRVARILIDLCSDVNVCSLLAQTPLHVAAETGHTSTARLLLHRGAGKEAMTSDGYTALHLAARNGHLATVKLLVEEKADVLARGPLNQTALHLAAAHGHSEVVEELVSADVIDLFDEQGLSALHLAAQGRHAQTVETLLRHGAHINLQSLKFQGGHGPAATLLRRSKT
Sequence of ERK7/MAPK15 (Q8TD08 whole entry): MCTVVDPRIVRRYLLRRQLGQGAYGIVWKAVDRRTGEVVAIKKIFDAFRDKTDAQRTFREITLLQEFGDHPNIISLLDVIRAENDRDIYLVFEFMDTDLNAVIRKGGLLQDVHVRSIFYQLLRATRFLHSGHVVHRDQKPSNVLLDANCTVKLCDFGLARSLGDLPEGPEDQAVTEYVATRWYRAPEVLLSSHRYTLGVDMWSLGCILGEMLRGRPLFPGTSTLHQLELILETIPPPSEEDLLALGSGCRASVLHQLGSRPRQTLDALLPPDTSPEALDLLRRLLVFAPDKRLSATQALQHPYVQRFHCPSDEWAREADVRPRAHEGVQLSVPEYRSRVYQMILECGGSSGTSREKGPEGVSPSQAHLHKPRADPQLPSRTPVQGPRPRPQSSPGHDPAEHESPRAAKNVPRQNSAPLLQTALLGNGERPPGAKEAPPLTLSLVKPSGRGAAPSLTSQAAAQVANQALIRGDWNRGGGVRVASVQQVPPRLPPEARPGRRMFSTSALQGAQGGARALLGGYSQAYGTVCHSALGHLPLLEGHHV

| Compound | Formation of the CoA derivative (LCMS detection, fragmentation confirmation) [1] | % Enzyme Activity (relative to DMSO controls) (CAMK2g) [%] | % Enzyme Activity (relative to DMSO controls) (ERK7/MAPK15) [%] | % Enzyme Activity (relative to DMSO controls) (RIPK4) [%] | Dose proportionality of the increases in mean Cmax and AUC0-24 [2] | Cmax ([2]; 100 mg/kg/day oral gavage) [µg/mL] | Tmax ([2]; 100 mg/kg/day oral gavage) [h] | AUC(0-t) ([2]; 100 mg/kg/day oral gavage) [µg·h/mL] | Cmax ([2]; 300 mg/kg/day oral gavage) [µg/mL] | Tmax ([2]; 300 mg/kg/day oral gavage) [h] | AUC(0-t) ([2]; 300 mg/kg/day oral gavage) [µg·h/mL] | AUC0-24 (h*ng/mL) ([2]; 100 mg/kg/day oral gavage) | Duration of the RER reduction (C57BL6/J mice) [h] | Respiratory exchange ratio (RER) compared to vehicle treated group (C57BL6/J mice) | Time to detection of the RER reduction after treatment (C57BL6/J mice) [h] | AUC0-24 (h*ng/mL) ([2]; 300 mg/kg/day oral gavage) |
| --- | --- | --- | --- | --- | --- | --- | --- | --- | --- | --- | --- | --- | --- | --- | --- | --- |
| CC(C)(CCCCc1ccc(CCCCC(C)(C)C(=O)O)cc1)C(=O)O [Compound I-1, 6-[4-(5-carboxy-5-methylhexyl)-phenyl]-2,2-dimethylhexanoic acid] | detected | 57.02 | 100.06 | 42.78 | less than dose proportional | 415 | 2 | 5460 | 787 | 1 | 7520 | 5,460,000 h*ng/mL | 6 | significant reduction | ≤ 1 |  |
| CC(C)(CCCCc1cccc(CCCCC(C)(C)C(=O)O)c1)C(=O)O [Compound I-32, 6-[3-(5-carboxy-5-methylhexyl)-phenyl]-2,2-dimethylhexanoic acid] | detected | 66.13 | 102.21 | 42.74 | approximately dose proportional | 142 | 2 | 2030 | 406 | 4 | 7880 |  | 6 | significant reduction | ≤ 1 | 7,880,000 h*ng/mL |
